The test system of data set [1] is immune-competent C57Bl/6 mice. The data set can be described thus: PFO on spheres with mIL-10 secreting ARPE-19 cells and glucocorticoid particles implanted in the peritoneum of mice. It is filed as in vivo. The following applies: mIL-10 secreting ARPE-19 cells, explanted at 28 days, FIGS. 5C-5L.
In data set [2] the test system is immune-competent C57Bl/6 mice. The data set can be described thus: PFO induction on spheres with GLA-secreting human cells and drug particles implanted in the peritoneum of mice. It is filed as in vivo. The settings on record: explanted after 20 days; for PFO induction on explanted spheres (brightfield micrographs): GLA-secreting human cells co-encapsulated with drug particles, peritoneum; for computer aided opacity scoring of PFO induction: FIG. 4B. The source says: GLA-secreting human cells were co-encapsulated with particles of the indicated drug and implanted in the peritoneum of immune-competent C57Bl/6 mice.
GLA-secreting human ARPE-19 cells were co-encapsulated with or without TAH particles into spheres that were then implanted in the peritoneum of immune-competent C57Bl/6 mice.

The nature of data set [3]: Release of soluble drug from alginate spheres containing drug particles, incubated in Normosol. The following applies: 1 ml Normosol, 37 C; over a 62 (Cyclosporine A) and 32 (TAH) day period respectively; FIG. 1B, 2B. It is filed as physicochemical. An excerpt: Cyclosporine A particles and Triamcinolone Hexacetonide (TAH) particles were encapsulated in the inner compartment of two compartment alginate hydrogel capsules (“spheres”).

Data set [4] concerns immune-competent C57Bl/6 mice. The data set is described as follows: In vivo hGLA production and viability of GLA-secreting human cells co-encapsulated with TAH crystals, implanted in mice. The procedure: GLA-secreting human cells were co-encapsulated with TAH crystals into spheres that were then implanted in the peritoneum of immune-competent C57Bl/6 mice. The amount of hGLA produced by the spheres (e.g., devices) in vivo at site of implantation and in systemic circulation was measured.

The subject of data set [5] is immune-competent Sprague Dawley rats. The data set can be described thus: PFO on spheres with FF particles and ARPE-19 cells implanted in the peritoneum of rats. Type of data set: in vivo. The settings on record: unmodified ARPE-19 cells or cells secreting one of two parathyroid hormone fusion proteins, 21 days, data not shown. The source says: In a third experiment, spheres co-encapsulating FF particles and either unmodified human ARPE-19 cells or ARPE-19 cells genetically modified to secrete one of two different fusion proteins comprising human parathyroid hormone were implanted in the peritoneum of immune-competent Sprague Dawley rats (five rats per group).

Where [6] appears, read: 20 days post-implantation, FIG. 6.

As to `C[C@@H]1C[C@H]2[C@@H]3CCC4=CC(=O)C=C[C@]4(C)[C@@]3(Cl)[C@@H](O)C[C@]2(C)[C@@]1(OC(=O)c1ccco1)C(=O)CCl` [MF, mometasone furoate], the “PFO on explanted spheres” value in data set [1] is “minimal to no PFO”.

`COc1c(C)c2c(c(O)c1C/C=C(\C)CCC(=O)OCCN1CCOCC1)C(=O)OC2` [MMF]: in data set [2], the “PFO induction on explanted spheres (brightfield micrographs)” value (shortened to “PFO induction on explanted spheres”) is on record as “extensive PFO induction” and the “computer aided opacity scoring of PFO induction” value is recorded as “no statistically significant decrease in PFO induction”.

Take `CC(C)(C)CC(=O)OCC(=O)[C@@]12OC(C)(C)O[C@@H]1C[C@H]1[C@@H]3CCC4=CC(=O)C=C[C@]4(C)[C@@]3(F)[C@@H](O)C[C@@]12C` [TAH, triamcinolone hexacetonide]: the “soluble drug released from the spheres into the Normosol solution” value in data set [3] is “extended release”. The “PFO induction on explanted spheres” value in data set [2] is reported as “completely prevented induction of PFO”. Moreover, the “PFO on explanted spheres” value in data set [1] is listed as “minimal to no PFO”. For the same compound, in data set [4] (setting [6]), the hGLA in plasma entry was “Significant levels of hGLA” and the “hGLA in the peritoneal lavage” value was “Significant levels of hGLA”. In addition, the “viability in vivo of co-encapsulated GLA-secreting human cells” value in data set [4] (retrieved spheres, over a course of 20 days, data not shown) is listed as “maintained their viability”.

With `C[C@@H]1CCN(C(=O)CC#N)C[C@@H]1N(C)c1ncnc2[nH]ccc12` [Tofactitinib], in data set [2], the “PFO induction on explanted spheres” value is reported as “extensive PFO induction” and the “computer aided opacity scoring of PFO induction” value is “no statistically significant decrease in PFO induction”.

With fluticasone furoate [FF], the “PFO on explanted spheres” value in data set [1] and in data set [5] was “minimal to no PFO” throughout.

On to fluticasone propionate [FP], for which the “PFO on explanted spheres” value in data set [1] was “minimal to no PFO”.
